The term inhibition denotes the change of the read-out against control, counted positive when it falls.

Calls of active or inactive are those of the source.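 How the source made its calls: active means inhibition of 30% or more at 100 µM, inferred from the inactive rule; inactive means inhibition below 30% at 100 µM.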

In PubChem BioAssay AID624435 (The Scripps Research Institute Molecular Screening Center, 2012) one finds inhibition data, which are given here for 36 compounds.

Chain of Serine/threonine-protein phosphatase 5 (Homo sapiens) (P53041 whole entry, looked up): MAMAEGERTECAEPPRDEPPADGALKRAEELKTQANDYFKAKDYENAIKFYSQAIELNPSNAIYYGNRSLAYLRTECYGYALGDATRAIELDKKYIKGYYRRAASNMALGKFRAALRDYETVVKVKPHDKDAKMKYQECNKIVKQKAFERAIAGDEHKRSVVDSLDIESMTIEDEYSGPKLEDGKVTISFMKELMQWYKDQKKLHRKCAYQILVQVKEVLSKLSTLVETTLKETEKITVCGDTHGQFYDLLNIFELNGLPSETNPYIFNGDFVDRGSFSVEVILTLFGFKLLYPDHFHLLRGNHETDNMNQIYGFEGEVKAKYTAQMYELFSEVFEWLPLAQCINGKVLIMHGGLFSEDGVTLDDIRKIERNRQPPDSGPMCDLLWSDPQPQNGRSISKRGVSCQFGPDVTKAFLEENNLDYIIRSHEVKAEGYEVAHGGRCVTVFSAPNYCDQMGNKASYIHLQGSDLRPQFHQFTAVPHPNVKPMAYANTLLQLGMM

This test has as its target Serine/threonine-protein phosphatase 5 (Homo sapiens) (UniProt P53041). In words: PP5 inhibitors on histone substrate, late-stage follow-up, orthogonal assay for PP5 inhibitor project, biochemical, radiolabel, round 5, powder samples (AID 624435). To be noted: purified PP5c, 33P-phosphohistone dephosphorylation, scintillation; at 50 µM; stronger effect = higher value.
Turning to `O=C(O)c1cc2ccccn2n1`, the inhibition is -0.0487% (inactive).

On to `O=C(O)c1cc(-c2ccccc2)ncn1`, for which the inhibition was -6.61% (inactive).

For the compound `Cc1onc(C(=O)O)c1Cn1cccn1`, the inhibition was -2.66% (inactive).

`O=C(O)Cn1nnc2ccccc21`: the inhibition is 0.388% (inactive).

`O=C(O)c1nc2ncccn2n1`: the inhibition is -1.84% (inactive).

As for `Cc1cccc(-n2cnc(C(=O)O)c2)c1`, the inhibition is 2.84% (inactive).

Consider `Cc1cccc(-c2noc(C)c2C(=O)O)c1`, for which the inhibition is -5.14% (inactive).

`O=C(O)c1n[nH]nc1-c1ccccc1-c1ccccc1`: the inhibition is 41.2%.

For `O=C(O)c1nc(-n2cccc2)n[nH]1`, the inhibition was -1.61% (inactive).

For `O=C(O)c1ccccc1-n1cccc1`, the inhibition is -7.51% (inactive).

Regarding `O=C(O)c1n[nH]nc1-c1ccccn1`, the inhibition is 31.5%.

For the compound `O=C(O)c1c(-c2ccccc2)nnc2ccccc12`, the inhibition is -0.78% (inactive).

`O=C(O)c1cn[nH]n1`: the inhibition was -0.0127% (inactive).

For `O=C(O)c1n[nH]c2ccccc12`, the inhibition was -1.07% (inactive).

With `O=C(O)c1nnn(-c2ccccc2)c1-c1ccccc1`, the inhibition was 0.733% (inactive).

Turning to `O=C(O)c1cccn1-c1ccccc1`, the inhibition was -3.17% (inactive).

As to `CC(C)Oc1ccccc1-c1n[nH]nc1C(=O)O`, the inhibition is 67.5%.

Consider `O=C(O)c1ccccc1-c1ccccc1`, for which the inhibition was -5.88% (inactive).

Take `Cc1n[nH]nc1C(=O)O`: the inhibition is -4.84% (inactive).

For `CCc1ccccc1-c1n[nH]nc1C(=O)O`, the inhibition is 44.3%.

On to `O=C(O)c1cnn2ccccc12`, for which the inhibition is -5.1% (inactive).

As for `O=C(O)c1cc2cccnc2[nH]1`, the inhibition was -2.5% (inactive).

Take `O=C(O)c1n[nH]nc1-c1cccnc1`: the inhibition is 2.2% (inactive).

As to `COC(=O)c1n[nH]nc1-c1ccccc1`, the inhibition was 1.67% (inactive).

Take `O=C(O)c1csc(Nc2ccccc2)n1`: the inhibition was -0.948% (inactive).

Turning to `Cc1scc(C(=O)O)c1-c1ccccc1`, the inhibition was -4.13% (inactive).

With `O=C(O)c1ncn[nH]1`, the inhibition is 2.61% (inactive).

Consider `Cc1ccccc1-c1n[nH]nc1C(=O)O`, for which the inhibition is 39%.

In the case of `O=C(O)c1ccccc1-c1nn[nH]n1`, the inhibition is 0.116% (inactive).

As to `O=C(O)c1cc(-c2ccccc2)n[nH]1`, the inhibition is -4.55% (inactive).

`O=C(O)c1nn(Cc2ccccc2)nc1Cl`: the inhibition is 0.71% (inactive).

As to `O=C(O)c1c[nH]cc1-c1ccccc1`, the inhibition was -2.04% (inactive).

As to `O=C(O)c1cn(Cc2ccccc2)nn1`, the inhibition was -4.42% (inactive).

As for `O=C(O)CCn1nnc2ccccc21`, the inhibition was 0.241% (inactive).

For the compound `CC(C)c1ccccc1-c1n[nH]nc1C(=O)O`, the inhibition was 30.2%.

For `O=C(O)c1cn[nH]c1-c1ccccc1`, the inhibition was -5.7% (inactive).
